Data: patent US20260027068A1, “METHODS OF ADM[…]-KETAMINE” (Perception Neuroscience, Inc., priority 2022, published 2026)

Tested on: subjects with TRD
Experiment: Adverse events (TEAEs, SAEs) in the TRD study
Type: in vivo, human
Conditions: 30 mg (n = 33)
Source text: The definitions of an AE and SAE can be found in Section F. AEs were reported by the subject (or, when appropriate, by a caregiver, surrogate, or the subject's legally authorized representative). The Investigator and any designees were responsible for detecting, documenting, and recording events that meet the definition of an AE or SAE and remained responsible for following up AEs that were serious, considered related to the study treatment or study procedures, or that caused the subject to discontinue from the study.
All AEs were collected from the signing of the ICF until the second follow-up visit (Day 15) at the time points specified in the Schedule of Activities (Section C). Medical occurrences that began before the start of study treatment but after obtaining informed consent were recorded on the Medical History/Current Medical Conditions section of the CRF, not the AE section. All SAEs were recorded and reported to the Sponsor or designee within 24 hours as indicated in Section F. The Investigator submitted any updated SAE data to the Sponsor or designee within 24 hours of it being available. Investigators were not obligated to actively seek AE or SAE information after the conclusion of study participation. However, if the Investigator learns of any SAE, including a death, at any time after a subject has been discharged from the study, and he/she considers the event to be reasonably related to the study treatment or study participation, the Investigator must promptly notify the Sponsor or designee. The method of recording, evaluating, and assessing the causality of AEs and SAEs and the procedures for completing and transmitting SAE reports are provided in Section F.
An AE is any untoward medical occurrence in a patient or subject, temporally associated with the use of study treatment, whether or not considered related to the study treatment. An AE can therefore be any unfavorable and unintended sign (including an abnormal laboratory finding), symptom, or disease (new or exacerbated) temporally associated with the use of study treatment.
If an event is not an AE per the definition above, then it cannot be an SAE even if serious conditions are met (e.g., hospitalization for signs/symptoms of the disease under study). A Serious Adverse Event (SAE) is defined as any untoward medical occurrence that, at any dose: a) results in death; b) is life-threatening; c) requires inpatient hospitalization or prolongation of existing hospitalization; d) results in persistent disability/incapacity; or e) is a congenital anomaly/birth defect. The term “life-threatening” in the definition of “serious” refers to an event in which the subject was at risk of death at the time of the event. […] In general, hospitalization signifies that the subject has been detained (usually involving at least an overnight stay) at the hospital or emergency ward for observation and/or treatment that would not have been appropriate in the physician's office or outpatient setting. Complications that occur during hospitalization are AEs. If a complication prolongs hospitalization or fulfills any other serious criteria, the event is serious. When in doubt as to whether “hospitalization” occurred or was necessary, the AE should be considered serious. […] The term disability means a substantial disruption of a person's ability to conduct normal life functions.
(MedDRA; Version 23.0 or higher). Treatment-emergent adverse events (TEAEs) are AEs with onset or worsening after the start of study treatment. The AE summaries will be primarily based on TEAEs. The number and percentage of subjects with TEAEs will be summarized by treatment group, system organ class, and preferred term for all TEAEs, treatment-related TEAEs, SAEs, serious TEAEs, severe TEAEs, TEAEs of special interest, and all TEAEs leading to study drug discontinuation. All TEAEs will be further summarized by maximum severity and causality. The TEAEs of special interest will be identified in the SAP. […]

In the case of `CN[C@@]1(c2ccccc2Cl)CCCCC1=O` [PCN 101], the “Number of subjects with any treatment-emergent adverse events” value is reported as 11, the “Number of treatment-emergent adverse events” value is reported as 22 and the “Subjects with any treatment-emergent adverse events: (%) of subjects” value is reported as “(33)”. For the same molecule, the “TEAE PT Alopecia: (%) of subjects” value was “(0)”, the “TEAE PT Alopecia: number of subjects” value was 0 and the “TEAE PT Aversion: (%) of subjects” value was “(0)”. The “TEAE PT Aversion: number of subjects” value was 0, the “TEAE PT Balance disorder: (%) of subjects” value was “(0)” and the “TEAE PT Balance disorder: number of subjects” value was 0. The “TEAE PT Blood pressure increased: (%) of subjects” value was “(0)”, the “TEAE PT Blood pressure increased: number of subjects” value was 0 and the “TEAE PT Bruxism: (%) of subjects” value was “(0)”. The “TEAE PT Bruxism: number of subjects” value was 0, the “TEAE PT Confusional state: (%) of subjects” value was “(0)” and the “TEAE PT Confusional state: number of subjects” value was 0. The “TEAE PT Defect conduction intraventricular: (%) of subjects” value was “(0)”, the “TEAE PT Defect conduction intraventricular: number of subjects” value was 0 and the “TEAE PT Derealisation: (%) of subjects” value was “(12)”. For the same molecule, the “TEAE PT Derealisation: number of subjects” value was 4, the “TEAE PT Diarrhoea: (%) of subjects” value was “(0)” and the “TEAE PT Diarrhoea: number of subjects” value was 0. The “TEAE PT Dissociation: (%) of subjects” value was “(0)”, the “TEAE PT Dissociation: number of subjects” value was 0 and the “TEAE PT Dizziness: (%) of subjects” value was “(6)”. The “TEAE PT Dizziness: number of subjects” value was 2, the “TEAE PT Dry mouth: (%) of subjects” value was “(0)” and the “TEAE PT Dry mouth: number of subjects” value was 0. For the same molecule, the “TEAE PT Dysarthria: (%) of subjects” value was “(0)”, the “TEAE PT Dysarthria: number of subjects” value was 0 and the “TEAE PT Dyspnoea exertional: (%) of subjects” value was “(3)”. The “TEAE PT Dyspnoea exertional: number of subjects” value was 1, the “TEAE PT Energy increased: (%) of subjects” value was “(0)” and the “TEAE PT Energy increased: number of subjects” value was 0. For the same molecule, the “TEAE PT Euphoric mood: (%) of subjects” value was “(0)”, the “TEAE PT Euphoric mood: number of subjects” value was 0 and the “TEAE PT Fatigue: (%) of subjects” value was “(0)”. The “TEAE PT Fatigue: number of subjects” value was 0, the “TEAE PT Feeling abnormal: (%) of subjects” value was “(0)” and the “TEAE PT Feeling abnormal: number of subjects” value was 0. The “TEAE PT Feeling drunk: (%) of subjects” value was “(0)”, the “TEAE PT Feeling drunk: number of subjects” value was 0 and the “TEAE PT Haematuria: (%) of subjects” value was “(3)”. For the same molecule, the “TEAE PT Haematuria: number of subjects” value was 1, the “TEAE PT Headache: (%) of subjects” value was “(9)” and the “TEAE PT Headache: number of subjects” value was 3. For the same molecule, the “TEAE PT Hyperacusis: (%) of subjects” value was “(0)”, the “TEAE PT Hyperacusis: number of subjects” value was 0 and the “TEAE PT Hyperhidrosis: (%) of subjects” value was “(3)”. The “TEAE PT Hyperhidrosis: number of subjects” value was 1, the “TEAE PT Hyperphagia: (%) of subjects” value was “(0)” and the “TEAE PT Hyperphagia: number of subjects” value was 0. For the same molecule, the “TEAE PT Hypoaesthesia oral: (%) of subjects” value was “(0)”, the “TEAE PT Hypoaesthesia oral: number of subjects” value was 0 and the “TEAE PT Hypoaesthesia: (%) of subjects” value was “(0)”. The “TEAE PT Hypoaesthesia: number of subjects” value was 0, the “TEAE PT Increased appetite: (%) of subjects” value was “(0)” and the “TEAE PT Increased appetite: number of subjects” value was 0. The “TEAE PT Influenza like illness: (%) of subjects” value was “(0)”, the “TEAE PT Influenza like illness: number of subjects” value was 0 and the “TEAE PT Infusion site hypoaesthesia: (%) of subjects” value was “(0)”. For the same molecule, the “TEAE PT Infusion site hypoaesthesia: number of subjects” value was 0, the “TEAE PT Left ventricular hypertrophy: (%) of subjects” value was “(0)” and the “TEAE PT Left ventricular hypertrophy: number of subjects” value was 0. The “TEAE PT Lethargy: (%) of subjects” value was “(0)”, the “TEAE PT Lethargy: number of subjects” value was 0 and the “TEAE PT Limb discomfort: (%) of subjects” value was “(0)”. The “TEAE PT Limb discomfort: number of subjects” value was 0, the “TEAE PT Logorrhoea: (%) of subjects” value was “(0)” and the “TEAE PT Logorrhoea: number of subjects” value was 0. For the same molecule, the “TEAE PT Memory impairment: (%) of subjects” value was “(0)”, the “TEAE PT Memory impairment: number of subjects” value was 0 and the “TEAE PT Muscle strain: (%) of subjects” value was “(3)”. The “TEAE PT Muscle strain: number of subjects” value was 1, the “TEAE PT Muscular weakness: (%) of subjects” value was “(0)” and the “TEAE PT Muscular weakness: number of subjects” value was 0. The “TEAE PT Nausea: (%) of subjects” value was “(0)”, the “TEAE PT Nausea: number of subjects” value was 0 and the “TEAE PT Paraesthesia: (%) of subjects” value was “(0)”. For the same molecule, the “TEAE PT Paraesthesia: number of subjects” value was 0, the “TEAE PT Rhinorrhoea: (%) of subjects” value was “(0)” and the “TEAE PT Rhinorrhoea: number of subjects” value was 0. The “TEAE PT Sedation: (%) of subjects” value was “(0)”, the “TEAE PT Sedation: number of subjects” value was 0 and the “TEAE PT Sensory disturbance: (%) of subjects” value was “(3)”. The “TEAE PT Sensory disturbance: number of subjects” value was 1, the “TEAE PT Sinusitis: (%) of subjects” value was “(0)” and the “TEAE PT Sinusitis: number of subjects” value was 0. For the same molecule, the “TEAE PT Skin abrasion: (%) of subjects” value was “(0)”, the “TEAE PT Skin abrasion: number of subjects” value was 0 and the “TEAE PT Slow speech: (%) of subjects” value was “(0)”. The “TEAE PT Slow speech: number of subjects” value was 0, the “TEAE PT Smoke sensitivity: (%) of subjects” value was “(0)” and the “TEAE PT Smoke sensitivity: number of subjects” value was 0. For the same molecule, the “TEAE PT Somnolence: (%) of subjects” value was “(12)”, the “TEAE PT Somnolence: number of subjects” value was 4 and the “TEAE PT Tachycardia: (%) of subjects” value was “(0)”. The “TEAE PT Tachycardia: number of subjects” value was 0, the “TEAE PT Throat tightness: (%) of subjects” value was “(0)” and the “TEAE PT Throat tightness: number of subjects” value was 0. The “TEAE PT Time perception altered: (%) of subjects” value was “(0)”, the “TEAE PT Time perception altered: number of subjects” value was 0 and the “TEAE PT Urinary tract infection: (%) of subjects” value was “(3)”. For the same molecule, the “TEAE PT Urinary tract infection: number of subjects” value was 1, the “TEAE PT Venous injury: (%) of subjects” value was “(0)” and the “TEAE PT Venous injury: number of subjects” value was 0. For the same molecule, the “TEAE PT Vertigo: (%) of subjects” value was “(3)”, the “TEAE PT Vertigo: number of subjects” value was 1 and the “TEAE PT Vessel puncture site erythema: (%) of subjects” value was “(3)”. The “TEAE PT Vessel puncture site erythema: number of subjects” value was 1, the “TEAE PT Vision blurred: (%) of subjects” value was “(0)” and the “TEAE PT Vision blurred: number of subjects” value was 0. The “TEAE PT Visual impairment: (%) of subjects” value was “(0)”, the “TEAE PT Visual impairment: number of subjects” value was 0 and the “TEAE SOC Cardiac disorders: (%) of subjects” value was “(0)”. For the same molecule, the “TEAE SOC Cardiac disorders: number of subjects” value was 0, the “TEAE SOC Ear and labyrinth disorders: (%) of subjects” value was “(3)” and the “TEAE SOC Ear and labyrinth disorders: number of subjects” value was 1. For the same molecule, the “TEAE SOC Eye disorders: (%) of subjects” value was “(0)”, the “TEAE SOC Eye disorders: number of subjects” value was 0 and the “TEAE SOC Gastrointestinal disorders: (%) of subjects” value was “(0)”. For the same molecule, the “TEAE SOC Gastrointestinal disorders: number of subjects” value was 0, the “TEAE SOC General disorders and administration site conditions: (%) of subjects” value was “(3)” and the “TEAE SOC General disorders and administration site conditions: number of subjects” value was 1. The “TEAE SOC Immune system disorders: (%) of subjects” value was “(0)”, the “TEAE SOC Immune system disorders: number of subjects” value was 0 and the “TEAE SOC Infections and infestations: (%) of subjects” value was “(3)”. For the same molecule, the “TEAE SOC Infections and infestations: number of subjects” value was 1, the “TEAE SOC Injury, poisoning and procedural complications: (%) of subjects” value was “(3)” and the “TEAE SOC Injury, poisoning and procedural complications: number of subjects” value was 1. The “TEAE SOC Investigations: (%) of subjects” value was “(0)”, the “TEAE SOC Investigations: number of subjects” value was 0 and the “TEAE SOC Metabolism and nutrition disorders: (%) of subjects” value was “(0)”. The “TEAE SOC Metabolism and nutrition disorders: number of subjects” value was 0, the “TEAE SOC Musculoskeletal and connective tissue disorders: (%) of subjects” value was “(0)” and the “TEAE SOC Musculoskeletal and connective tissue disorders: number of subjects” value was 0. For the same molecule, the “TEAE SOC Nervous system disorders: (%) of subjects” value was “(27)”, the “TEAE SOC Nervous system disorders: number of subjects” value was 9 and the “TEAE SOC Psychiatric disorders: (%) of subjects” value was “(12)”. For the same molecule, the “TEAE SOC Psychiatric disorders: number of subjects” value was 4, the “TEAE SOC Renal and urinary disorders: (%) of subjects” value was “(3)” and the “TEAE SOC Renal and urinary disorders: number of subjects” value was 1. The “TEAE SOC Respiratory, thoracic and mediastinal disorders: (%) of subjects” value was “(3)”, the “TEAE SOC Respiratory, thoracic and mediastinal disorders: number of subjects” value was 1 and the “TEAE SOC Skin and subcutaneous tissue disorders: (%) of subjects” value was “(3)”. The “TEAE SOC Skin and subcutaneous tissue disorders: number of subjects” value was 1.
